Experimental data published in patent publication US12391768B2, “Antibodies to ticagrelor and methods of use” (MEDIMMUNE LIMITED, priority 2014, dated 2025).

B1: TICA0072: parent anti-ticagrelor/TAM antibody; VH SEQ ID NO:32, VL SEQ ID NO:37 (antibody, listed as Homo sapiens, V domains shown)
VH: QVQLQESGAEVKKPGSSVRVSCKASGGTFDSYSIHWVRQAPGQGLEWMGGIIPAFGTLSSAQDFQARVTISADKSTSTAYMELSGLRSEDTAVYYCARGSHLYDFWSASHPPNDALAIWGQGTLVTVSS
VL: QSVVTQPPSVSAAPGQKVTISCSGSNSDIGNNYVSWYQQLPGTAPKLLIYDNNKRPSGIPDRFSGSKSGTSATLAITGLQAGDEADYYCGTWDISLSAGLFGGGTKVTVL

Key:
[1] = target: TICA0053 Fab; assay: HTRF competition binding selectivity assay, TICA0053 His-Fab; parameters: species or system human; conditions: first series (Table 2), not DMSO normalised; read-out: IC50 (uM) for inhibition of biotinylated ticagrelor binding to TICA0053 his-Fab
Procedure: (§1) Total Binding control wells were set up which contained all of the assay components above except that 5 ul assay buffer was added in place of the test selectivity compound addition. Negative Binding control wells were set up which contained all of the assay components included in the Total Binding control wells except that 5ul assay buffer was added in place of the His-Fab addition. Test compound serial titrations were either ½ or ⅓ depending on the particular experiment and top final assay compound concentrations were optimized on a compound specific basis. The concentration of biotinylated ticagrelor and His-Fab was optimized on a Fab specific basis in separate experiments. For the four Fabs investigated at the end of the lead isolation phase (TICA0010, TICA0049, TICA0053 and TICA0072) the final assay reagent concentrations used are set out in Table 1 below:
(§2) For the two Fabs investigated at the end of the lead optimization phase (TICA0162 and TICA0212) the final assay reagent concentrations used were 5nM biotinylated ticagrelor and 1 nM His Fab in both cases. […] In order to enable subsequent normalization of data to correct for any such vehicle related effects parallel titrations of DMSO alone were included in most experiments in which the final assay DMSO concentrations mirrored those of the test compound serial dilutions. At the end of the set up procedure that assay was incubated for 3hrs at RT before being read on an Envision plate reader using a standard read protocol.
(§3) The negative ratio value used in the calculation of % Delta F was derived from the Negative Binding control wells. % Delta F values were then used to calculate % Specific Binding values according to the equation below: Specific Binding (%)={(Sample Delta F−Negative Binding Delta F)/(Total Binding Delta F−Negative Binding Delta F)}×100
(§4) For standard calculations of % Specific Binding Total Binding Delta F was taken from Total Binding control wells which contained all of the aforementioned components of the assay but without inclusion of any competing test compound.
(§5) In those experiments where DMSO normalization was applied DMSO normalised % Specific Binding was calculated essentially according to the equation above except that in this case Total Binding Delta F was taken from wells containing all of the components in the Total Binding control wells as well as DMSO at a concentration equivalent to that in the relevant sample well.

[2] = Total plasma concentration of ticagrelor and TAM (LC-MS/MS); assay type: in vivo, mice; conditions: Example 12
Procedure: Blood samples were collected in tubes with EDTA anticoagulant and centrifuged for 5 min at 10000× g at room temperature to prepare plasma. The plasma concentration of ticagrelor and TAM were determined by protein precipitation and liquid chromatography with tandem mass spectrometry (LC-MS/MS) as described in published method [Sillén H., et al., J Chromatogr B Analyt Technol Biomed Life Sci 2010; 878: 2299-306] with the following deviations. Plasma, 50 μL, was protein precipitated with 180 μl internal standard (D7-ZD6140) in acetonitrile. The liquid chromatographic system and mass spectrometer was an Acquity Ultra Performance LC coupled to a Xevo TQ-S mass spectrometer from Waters. Chromatographic separation was achieved on an Aquity UPLC® BEH C18 column (2.1×50 mm, particle size 1.7 um). Negative electrospray ionization was utilized. Eluent A was water with 10 mmol/L ammonium acetate, pH5 and eluent B was acetonitrile with 10 mmol/L ammonium acetate. Injection volume was 1 to 5 μL and the analytical gradient started with 4% B, increasing to 95% in 1.5 min, remaining until 2.3 min, before returning to initial conditions within 2.4 min followed by 0.3 min re-equilibration. No quality control samples were used in the analysis. The lower limit of quantification (LLOQ) was 0.005 μmol/L and the calibration range was 0.005 to 15.0 μM.
The total plasma concentrations of ticagrelor and TAM in presence of TICA0212/MEDI2452 were determined by adding 1% formic acid (FA: Sample, 1:5) followed by protein precipitation and LC-MS/MS as described above. Formic acid was added to the sample to facilitate dissociation of ticagrelor and TICA0212/MEDI2452.

[3] = target: TICA0162 Fab; assay: HTRF competition binding selectivity assay, TICA0162 His-Fab; parameters: species or system human; conditions: Table 7, DMSO normalised; 5 nM biotinylated ticagrelor, 1 nM His Fab; read-out: IC50 (uM) for inhibition of biotinylated ticagrelor binding to TICA0162 Fab
Procedure: as §1
as §2, with “protocol. […]” for “protocol.”
as §5

[4] = target: TICA0212 Fab; assay: HTRF competition binding selectivity assay, TICA0212 His-Fab; parameters: species or system human; conditions: Table 7, DMSO normalised; 5 nM biotinylated ticagrelor, 1 nM His Fab; read-out: IC50 (uM) for inhibition of biotinylated ticagrelor binding to TICA0212 Fab
Procedure: as §1
For the two Fabs investigated at the end of the lead optimization phase (TICA0162 and TICA0212) the final assay reagent concentrations used were 5nM biotinylated ticagrelor and 1 nM His Fab in both cases. […] At the end of the set up procedure that assay was incubated for 3hrs at RT before being read on an Envision plate reader using a standard read protocol. […]

[5] = target: TICA0010 Fab; assay: HTRF competition binding selectivity assay, TICA0010 His-Fab; parameters: species or system human; conditions: first series (Table 2), not DMSO normalised; read-out: IC50 (uM) for inhibition of biotinylated ticagrelor binding to TICA00l0 his-Fab
Procedure: as §1, §2, §3, §4, §5

[6] = target: TICA0072 Fab; assay: HTRF competition binding selectivity assay, TICA0072 His-Fab; parameters: species or system human; conditions: second series (Table 3), DMSO normalised; read-out: IC50 in competition binding selectivity studies, TICA0072
Procedure: as §1, §2, §3, §4, §5
(§6) In a second series of experiments further selectivity data was generated for TICA0049 and TICA0072 Fabs in which a subset of four of the twelve compounds listed in FIG. 4 were retested along with ticagrelor, TAM and TIM and several adenosine related compounds. Here, in a refinement to the earlier investigations in Table 2, experiments were designed in order to enable normalisation of percent specific binding values to correct for any non-specific vehicle related effects due to DMSO. Example plotted data from this second series of experiments is shown in FIG. 5A-F along with tabulated IC50 values in Table 3.

[7] = cited from earlier work
[8] = target: TICA0049 Fab; assay: HTRF competition binding selectivity assay, TICA0049 His-Fab; parameters: species or system human; conditions: second series (Table 3), DMSO normalised; read-out: IC50 in competition binding selectivity studies, TICA0049
Procedure: as §1, §2, §3, §4, §5, §6

[9] = target: P2Y12 (Homo sapiens, UniProt Q9H244); conditions: cited from earlier work
[10] = target: TICA0159 IgG binding to biotinylated ticagrelor; assay: Second generation HTRF epitope competition assay
Procedure: Purified parent TICA0072 (scFv or Fab) was used as a benchmark in all experiments such that improvements in IC50 measured with optimized variants (scFv or Fab) could be expressed as fold improvements over parent TICA0072. Total Binding Control Wells contained all assay components except that 5 ul assay buffer was added in place of the purified scFv or Fab sample. Negative Binding control wells contained all of the components of the Total Binding control wells except that 5 ul of assay buffer was added in place of the TICA0072 IgG.
In both single point HTS and multipoint IC50 profiling versions of the assay. plates were incubated for 3 hrs at RT before being read on an Envision plate reader using a standard HTRF read protocol in which samples are excited at 337 nm and time resolved fluorescence emission is measured at both 620 nm and 665 nM.
Raw 665 nm and 620 nm counts were used to calculate Delta F (%) and % Specific Binding according to the equations described earlier in Assays 1 and 4, respectively. For multipoint secondary profiling experiments IC50 values were determined using Graphpad Prism software using sigmoidal dose response (variable slope) curve fitting (4 parameter logistic equation).
This assay was used only in multipoint IC50 profiling format (as opposed to HTS format) and was performed essentially identically to the method given in Assay 5 (above) for multipoint IC50 profiling of purified Fab variants in the parent TICA0072 IgG based epitope competition assay. The only difference being that TICA0159 IgG was used in place of TICA0072 IgG at the appropriate point in the assay set up but at the same 16nM final assay concentration. In all other respects this assay was performed exactly as described above in the multipoint secondary profiling version for purified Fab.

[11] = HTRF HTS of periplasmic scFv, Assay 3 versus Assay 1; assay type: binding; conditions: 30 nM biotinylated ticagrelor, 50-fold excess (1500 nM) unmodified ticagrelor
From the text: Using known techniques, a human scFv phage display library was used to generate scFv antibodies, and specific scFvs were isolated from the library in a series of repeated selection cycles on biotinylated ticagrelor with deselection on biotinylated adenosine, essentially as described in Lloyd et al 2009 PEDS 22: 159-168, incorporated herein by reference. A number of individual clones from the round 2 and round 3 selection outputs were selected, seFvs were expressed in the bacterial periplasm and screened for specificity in three parallel biochemical assays. […]
Assays 1, 2, and 3 were performed using the same general techniques and strategy. […] HTRF® (homogeneous time resolved fluorescence) is based upon the principle of TR-FRET (time resolved fluorescence resonance energy transfer). […] Provided the donor and acceptor fluorophores are in sufficiently close proximity (approx. <10 nm), the excitation of the Europium cryptate donor (337 nm) results in a transfer of energy to the XL^665 acceptor which in turn emits a fluorescence signal at 665 nm. […]
Raw 665 nm and 620 nm counts were first converted into 665 nm/620 nm ratio values and subsequently results were expressed as Delta F (%) values. Delta F was calculated according to the following equation: Delta F (%)={((sample 665/620 ratio)−(negative 665/620) ratio))/(negative 665/620 ratio)}×100 […]

Chain of P2Y12 (Q9H244 whole entry): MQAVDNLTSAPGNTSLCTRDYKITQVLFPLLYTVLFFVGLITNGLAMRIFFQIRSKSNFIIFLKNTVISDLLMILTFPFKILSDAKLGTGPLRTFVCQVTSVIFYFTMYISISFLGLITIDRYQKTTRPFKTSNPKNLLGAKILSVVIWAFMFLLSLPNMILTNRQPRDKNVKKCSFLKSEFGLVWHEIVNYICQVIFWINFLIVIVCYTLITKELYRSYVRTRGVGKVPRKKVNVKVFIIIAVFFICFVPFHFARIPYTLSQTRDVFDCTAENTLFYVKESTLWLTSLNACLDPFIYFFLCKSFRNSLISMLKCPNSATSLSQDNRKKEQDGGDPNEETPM

Molecule | IC50 [1] [µM] | mean total plasma concentration ([2]; end of ticagrelor infusion 300 μg/kg/min 20 min, mice) [µM] | mean total plasma concentration at time of tail cut ([2]; vehicle treated mice, t=30 minutes) [µM] | IC50 [3] [µM] | IC50 [4] [µM] | IC50 [5] [µM] | IC50 [6] [nM] | circulating half-life ([7]; human, in vivo) [h] | concentration as % of the parent ticagrelor concentration ([7]; patients on BRILINTA/BRILIQUE) | IC50 [8] [nM] | P2Y12 antagonist activity [9] | IC50 ([10]; Fab, 16 nM TICA0159 IgG, 1 nM biotinylated ticagrelor) [nM] | Fold Improved ([10]; IC50 relative to parent TICA0072 Fab) | % inhibition of binding observed in Assay 3 versus Assay 1 [11] [%]
CCCSc1nc(N[C@@H]2C[C@H]2c2ccc(F)c(F)c2)c2nnn([C@@H]3C[C@H](O)[C@@H](O)[C@H]3O)c2n1 [TAM] | 0.134 | 0.3 | 0.6 | 0.032 | 0.031 | 0.124 | 483 | 12 | 30-40% | 366 | equally effective | – | – | –
B1 | – | – | – | – | – | – | – | – | – | – | – | 1710 | 0 | > 90
